In patent US7119207B2, “Benzoamide piperidine containing compounds and related compounds” (Pfizer INC, priority 2000, dated 2006):
Where a name gives a salt, the structure may show the parent alone.

Row | melting point | Structure (SMILES)
1 | > 250 °C (dec.) | COc1cc2c(cc1CN[C@H]1CCCN(C)[C@H]1c1ccccc1)C(C)(C)C(=O)N2C (as salt: hydrochloride) [Example 14, 5-[{(2S,3S)-1-Methyl-2-phenyl-piperidin-3-ylamino}-methyl]-6-methoxy-1,3,3-trimethyl-1,3-dihydro-indol-2-one]
2 | 231 to 234 °C (dec.) | CCC1CCC(NCc2cc3c(cc2OC)C2CC2C(=O)N3C)C(c2ccccc2)N1 (stereo not drawn) [Example 85, 5-[(6-Ethyl-2-phenyl-piperidin-3-ylamino)-methyl]-6-methoxy-3-methyl-1,1a,3,7b-tetrahydro-3-aza-cyclopropa[a]naphthalen-2-one]
3 | > 250 °C (dec.) | COc1cc2c(cc1CN[C@H]1CCCN(Cc3n[nH]c(=O)[nH]3)[C@H]1c1ccccc1)C(C)(C)C(=O)N2C [Example 18, 6-Methoxy-1,3,3-trimethyl-5-{[(2S,3S)-1-(5-oxo-4,5-dihydro-1H-[1,2,4]triazol-3-ylmethyl)-2-phenyl-piperidin-3-ylamino]-methyl}-1,3-dihydro-indol-2-one]

Continued, compound first:

Row | Structure (SMILES) | melting point
4 | COc1cc2c(cc1CN[C@H]1CCCN(C(=O)C(F)(F)F)[C@H]1c1ccccc1)N(C)C(=O)CC2 (as salt: hydrochloride) [Example 10, 6-Methoxy-1-methyl-7-[(2S,3S)-(2-phenyl-1-trifluoroacetyl-piperidin-3-ylamino)-methyl]-3,4-dihydro-1H-quinolin-2-one] | 222 to 224 °C (dec.)
5 | COc1cc2c(cc1CNC1CCCNC1c1ccccc1)NC(=O)CC2 (stereo not drawn) (as salt: HCl) [Example 1, 6-Methoxy-7-[(2-phenyl-piperidin-3-ylamino)-methyl]-3,4-dihydro-1H-quinolin-2-one] | 233 to 235 °C
6 | CCN1C(=O)CCc2cc(OC)c(CNC3CCCNC3c3ccccc3)cc21 (stereo not drawn) (as salt: hydrochloride) [Example 2, 1-Ethyl-6-methoxy-7-[(2-phenyl-piperidin-3-ylamino)-methyl]-3,4-dihydro-1H-quinolin-2-one] | 253 to 255 °C
7 | COc1cc2c(cc1CNC1CCCNC1c1ccccc1)N(C)C(=O)CC2(C)C (stereo not drawn) (as salt: hydrochloride) [Example 4, 6-Methoxy-1,4,4-trimethyl-7-[(2-phenyl-piperidin-3-ylamino)-methyl]-3,4-dihydro-1H-quinolin-2-one] | > 280 °C
8 | COc1cc2c(cc1CNC1CCCNC1c1ccccc1)N(S(C)(=O)=O)C(=O)CC2 (stereo not drawn) (as salt: hydrochloride) [Example 3, 1-Methanesulfonyl-6-methoxy-7-[(2-phenyl-piperidin-3-ylamino)-methyl]-3,4-dihydro-1H-quinolin-2-one] | 237 to 241 °C
9 | COc1cc2c(c(F)c1CNC1CCCNC1c1ccccc1)N(C)C(=O)CC2(C)C (stereo not drawn) (as salt: hydrochloride) [Example 5, 8-Fluoro-6-methoxy-1,4,4-trimethyl-7-[(2-phenyl-piperidin-3-ylamino)-methyl]-3,4-dihydro-1H-quinolin-2-one] | > 270 °C
